The text below walks through data of ChEMBL document CHEMBL4825705, “Iridoid Constituents of Viburnum brachybotryum” (J Nat Prod, 2021).

Counter-ions that a name gives are not always drawn.

This test relates to HCT-116. The experiment in a line: Cytotoxicity against human HCT-116 cells assessed as cell growth inhibition measured after 48 hrs by MTT assay. The following applies: HCT-116, 48 h. The test is classed as functional, cell-based. For orientation: Tetrazolium assays rely on reduction of a dye to a coloured formazan, in cell work by metabolically active cells.
The term IC50 denotes the concentration at which inhibition is half-maximal. Take `C=C1[C@H]2O[C@@H](OC(=O)/C=C(/C)COC(C)=O)[C@H]3[C@@H]1CC(=O)[C@@]3(CCl)O2`: the IC50 is 5.2 µM. Then `C=C1[C@H]2O[C@@H](OC(=O)/C=C(/C)COC(C)=O)[C@H]3[C@@H]1CC(=O)[C@@]3(CO)O2`, with 4.9 µM; and `COc1cccc2c1C(=O)c1c(O)c3c(c(O)c1C2=O)C[C@@](O)(C(=O)CO)C[C@@H]3O[C@H]1C[C@H](N)[C@H](O)[C@H](C)O1` [DOXORUBICIN HYDROCHLORIDE], with 0.16 µM.
